Experimental data as given in patent US20260014278A1, “HYBRID PEPTIDE DENDRIMER SYSTEMS AND EXTRAHEPATIC DELIVERY” (NUNTIUS THERAPEUTICS LIMITED, priority 2022, published 2026).

Tests used:
[1] = Zeta potential of nanoparticles (electrophoretic light scattering); format: physicochemical
Excerpt: Zeta potential is a measurement of the magnitude of the electrostatic or charge repulsion/attraction between particles. This can be determined by analysing particle mobility and charge (Zeta potential) using the Electrophoretic Light Scattering (ELS) technique.
Zeta potential is a measurement of the magnitude of the electrostatic or charge repulsion/attraction between particles. This can be determined by analysing particle mobility and charge (Zeta potential) using the Electrophoretic Light Scattering (ELS) technique. […] Parameters: reference material: polystyrene latex, dispersant: water, 25° C. The measurements of the zeta potential were carried out using the Zetasizer Advance Series—Pro (Malvern Panalytical Ltd, Malvern, UK) according to the manufacturer's instructions.

[2] = Dynamic light scattering: hydrodynamic size and polydispersity index (PDI) of nanoparticles; format: physicochemical
Outline: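 Hydrodynamic size measured by DLS (Stokes-Einstein), PDI from cumulants fit per ISO 13321/22412. Samples diluted 16× in 25 mM HEPES, water as dispersant, 25° C; PDI measured on dendrimer:nucleic acid 8:1 nanoparticles.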

[3] = GSCG1,2-RHL N:P=0.6:1, DOTMA:DOPE, coated with GSGGSGGSCG1-EEEE, with/without CpG (mRNA:CpG w/w 9:1)
[4] = mRNA, N:P 0.6:1, DOTMA:DOPE w/w 10:1, with or without 3 equivalents G1-EEEE with mannose coating
[5] = GSCG1,2-RHL and DOTMA:DOPE nanoparticles, 150 ug/mL mRNA, 40× dilution in 25 mM HEPES buffer

Substance: (RHL)4(KRHL)2KGSC-NH2 [GSCG1,2-RHL]
- zeta potential [1, 3]: +48 mV
- Zeta potential measurement ([1]; GSCG1,2-RHL and DOTMA:DOPE nanoparticles, diluted 3× in 25 mM HEPES, then 60× in water): +33.5 mV
- zeta potential [1, 4]: 28.23 mV
- Hydrodynamic size [2, 3]: 174 nm
- PDI [2, 3]: 0.17
- DLS measurement, Pdl [2, 5]: 0.13
- DLS measurement, size [2, 5]: 184 nm
- PDI [2, 4]: 0.1776
- size [2, 4]: 149.5 nm
